Consider one compound from patent publication US6525000B1, “Method for producing anellated triazoles and new anellated triazoles and their use” (BASF Aktiengesellschaft, priority 1998, dated 2003).

Common to all, as to assay: greenhouse post-emergence herbicidal test
Assay type in all cases: in vivo

One test deals with Abutilon theoprasti. Particulars: ABUTH, 100 = complete destruction, 0 = no damage. The text has this:
(§1) The seeds of the test plants were sown separately for each species. For the post-emergence treatment, the test plants were first grown to a plant height of from 3 to 15 cm, depending on plant habit, and only then treated with the active ingredients which had been suspended or emulsified in water. For this purpose, the test plants were either sown directly and grown in the same containers, or they were first grown separately as seedlings and transplanted into the test containers a few days prior to treatment. The rate of application for the post-emergence treatment was 0.0313 or 0.0156 kg of a.s./ha. Dependingon the species, the plants were kept at from 10-25° C. or 20-35° C. The test period extended over 2 to 4 weeks. During this time, the plants were tended, and their response to the individual treatments was evaluated. Evaluation was carried out using a scale from 0 to 100. 100 means no emergence of the plants, or complete destruction of at least the ariel plants, and 0 means no damage or normal course of growth. The plants used in the experiments belonged to the following species: [table]

In a further test the test system is Chenopodium album. To be noted: CHEAL, 100 = complete destruction, 0 = no damage.
Excerpt: as §1

The next test deals with Galium aparine. Particulars: GALAP, 100 = complete destruction, 0 = no damage.
Excerpt: as §1

A further test concerns Polygonum persicaria. Particulars: POLPE, 100 = complete destruction, 0 = no damage.
Excerpt: as §1

The next test has as its system Solanum nigrum. To be noted: SOLNI, 100 = complete destruction, 0 = no damage.
Excerpt: as §1

Another test deals with Veronica spp. To be noted: VERSS, 100 = complete destruction, 0 = no damage.
Excerpt: as §1

For the compound `CON=Cc1cc(N2C(=O)C3COCNN3C2=O)c(F)cc1Cl` (stereo not drawn) [Ex. 1d, 8-(4′-chloro-2′-fluoro-5′-methoxyiminomethylphenyl)-4-oxa-7,9-dioxo-1,2,8-triaza[4.3.0.]nonane], the “herbicidal activity, evaluation on a scale from 0 to 100” value is given as 100 in the test on Abutilon theoprasti (0.0156 kg of a.s./ha); 100 in the test on Abutilon theoprasti (0.0313 kg of a.s./ha); 98 in the test with Chenopodium album (0.0156 kg of a.s./ha); 98 with Chenopodium album (0.0313 kg of a.s./ha); 98 in the test with Galium aparine (0.0156 kg of a.s./ha); 98 in the test on Galium aparine (0.0313 kg of a.s./ha). Also, the “herbicidal activity, evaluation on a scale from 0 to 100” value is 98 in the test with Polygonum persicaria (0.0156 kg of a.s./ha); 98 in the test on Polygonum persicaria (0.0313 kg of a.s./ha); 100 with Solanum nigrum (0.0156 kg of a.s./ha); 100 in the test with Solanum nigrum (0.0313 kg of a.s./ha); 100 in the test on Veronica spp. (0.0156 kg of a.s./ha); 100 in the test on Veronica spp. (0.0313 kg of a.s./ha).
